Tests used:
Experiment in all cases: relative viability (nuclei count vs DMSO), 5 days (fraction); higher = more cells survive
[1] = compound: C1/C(=C\C2=CC=CS2)/C(=O)/C(=C/C3=CC=CS3)/C1 + O=C(CCCCCCC(=O)Nc1ccccc1)NO [Vorinostat] (partner 1 µM)
In short: (§1)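 For relative viability, nuclei counts in treated wells were divided by those in vehicle wells. Lung cancer cell lines had been pin-tool dosed in 1536-well plates the day after seeding and cultured for 5 days, then fixed and stained in one step (final 0.05% Triton X-100, 1% formaldehyde, 1 ug/ml Hoechst) and imaged at 4×. Doses were one drug alone or a fixed anchor-drug dose plus five library-drug doses (not always all listed) in √10 steps, and values are duplicate-plate medians.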

[2] = compound: C1/C(=C\C2=CC=CS2)/C(=O)/C(=C/C3=CC=CS3)/C1 + CC1(C)CCC(c2ccc(Cl)cc2)=C(CN2CCN(c3ccc(C(=O)NS(=O)(=O)c4ccc(N[C@H](CCN5CCOCC5)CSc5ccccc5)c(S(=O)(=O)C(F)(F)F)c4)cc3)CC2)C1 [Navitoclax] (partner 0.5 µM)
In short: as §1

TPCA-1 + Vorinostat = compound: C1=CC(=CC=C1C2=CC(=C(S2)NC(=O)N)C(=O)N)F [TPCA-1] + O=C(CCCCCCC(=O)Nc1ccccc1)NO [Vorinostat] (partner 1 µM)
In short: as §1

Cell Line	relative viability ([1]; first compound 0.2 µM)	relative viability ([1]; first compound 0.6325 µM)	relative viability ([1]; first compound 2 µM)	relative viability ([1]; first compound 6.325 µM)	relative viability ([1]; first compound 20 µM)	relative viability ([2]; first compound 0.2 µM)	relative viability ([2]; first compound 0.6325 µM)	relative viability ([2]; first compound 2 µM)	relative viability ([2]; first compound 6.325 µM)	relative viability ([2]; first compound 20 µM)	relative viability (TPCA-1 + Vorinostat; first compound 0.04 µM)	relative viability (TPCA-1 + Vorinostat; first compound 0.1265 µM)	relative viability (TPCA-1 + Vorinostat; first compound 0.4 µM)	relative viability (TPCA-1 + Vorinostat; first compound 1.265 µM)	relative viability (TPCA-1 + Vorinostat; first compound 4 µM)
NCI-H2405	0.991	1.02	1.08	0.876	1.14	1.23	0.892	1.15	0.766	1.08	1.12	0.983	1.15	0.975	0.103
NCI-H3122	1.08	1.08	0.907	0.639	0.708	1.02	1.02	1.02	1.01	1.02	1.34	0.814	0.955	1	0.897
PC-3 [JPC-3]	–	0.985	0.954	0.74	1.03	0.83	0.753	0.904	0.716	0.841	0.787	0.765	0.963	0.818	0.284
PC-14	0.855	0.809	0.843	0.614	0.687	1.05	0.987	0.978	0.88	0.999	0.838	0.802	0.802	0.639	0.448
RERF-LC-KJ	0.735	0.723	0.713	0.645	0.675	0.949	0.995	0.965	0.787	0.86	0.76	0.688	0.664	0.671	0.46
SK-LU-1	0.849	0.764	0.75	0.677	0.774	0.698	0.767	0.813	0.969	0.799	0.872	0.672	0.774	0.577	0.449
SK-MES-1	1.18	1.13	1.1	0.985	1.11	1.28	1.3	1.17	1	1.14	1.14	1.01	0.966	1.02	0.438
SW 1573	0.756	0.971	0.89	0.721	0.808	0.908	0.979	1.15	0.862	0.833	0.998	0.6	0.876	0.787	0.233

From the supplement of paper PMC10307832
